Results taken from the NIST ThermoML archive (doi:10.1016/j.jct.2005.10.013).

Assay: mn = molality of the nth substance listed, in mol/kg
Conditions: 101 kPa, Liquid, Sing-around technique in a fixed-path interferometer

CN(CCO)CCO [N-methyldiethanolamine] + O
speed of sound [m/s]
Conditions | m1 = 0.3067 | m1 = 0.5017 | m1 = 0.7035 | m1 = 0.8982 | m1 = 1.088 | m1 = 1.357 | m1 = 1.652 | m1 = 2.161
283.15 K | 1474.2 | 1489.7 | 1505.1 | 1519.3 | 1532.8 | 1550.9 | 1569.5 | 1598.7
298.15 K | 1520 | 1532.9 | 1545.8 | 1557.6 | 1568.7 | 1583.6 | 1598.9 | 1622.6
313.15 K | 1547.7 | 1557.7 | 1567.7 | 1576.9 | 1585.5 | 1597 | 1608.8 | 1626.9
